Source: article PMC6906431, “Selective small molecule PARG inhibitor causes replication fork stalling and cancer cell death” (Nature Communications, 2019)

Test system: MDA-MB-231 cells with scrambled shRNA (control)
Assay: Cellular PARylation, anti-PAR immunoblot
Type: cell-based, human
Experimental: Fig. 6 Selective inhibition of PARG by xanthine derivative JA2131. a Clonogenic survival assays of PC3, MDA-MB-231, and MCF-7 cells treated with PARGi. Cells were treated with either DMSO or 10 µM JA2131 for 2 h, irradiated with 3 Gy (MDA-MB-231 and MCF-7), 7 Gy (PC3) IR and grown for ~2 weeks, then colonies were fixed with methanol and stained with crystal violet. The results of three independent experiments are shown. Error bars = the standard error of the mean (SEM). b dose-response of JA2131 in MDA-MB-231 cells with and without IR. Cells were treated with designated concentrations of JA2131 for 2 h and then either left untreated or exposed to 3 Gy IR and allowed to recover for 1 h before lysis. Total protein was immunoblotted with anti-PAR antibody (upper panel), stripped and reprobed with anti-PCNA as a loading control. c MDA-MB-231 cells with stable scrambled shRNA (WT) or stable PARG shRNA, knockdown (KD), were treated with 5 μM JA2131 for 2 h, lysed and then total lysates were immunoblotted for anti-PAR (upper panel) followed by anti-PARG (upper middle panel), anti-PARP1 (lower middle panel) and anti-actin (bottom panel) antibody. […] Stable cells with scramble shRNA (control) and shPARG (PARG-KD) cells were treated with an increasing concentration of JA2131 for growth inhibitory IC50 determination. The data was normalized against 100% survival at the lowest inhibitor concentration. Error bars show the percent coefficient of variation. Equivalent concentrations of DMSO were used as a negative control. e The cytotoxicity of JA2131 along with PDD, Veliparib and Doxorubicin against MRC-5 cells. Error bars show the percent coefficient of variation. f CETSA for in-cell JA2131 target engagement. Normalized anti-PARG western blot intensities of three independent experiments were fitted as above and the estimated aggregation temperature (Tagg) is shown in the tabulated insert. Source Data are provided as a Source Data file.
Thus, dose-dependent JA2131-induced cellular PARylation with and without IR was investigated. For combined IR treatment, MDA-MB-231 cells were treated with JA2131 for 2 h, followed by […] X-ray and then allowed to recover for an hour before cellular extraction and western blotting analysis.
Using shRNA, next, we generated a stable MDA-MB-231 PARG knockdown (PARG-KD) cell-line (Supplementary Fig. 10). We compared PARGi JA2131-induced PARylation in PARG-KD and control cells. We reasoned that PARG-KD cells would show a reduced response to a selective PARGi as the stable PARG-KD cells would have to adopt a PARG-independent survival mechanism. MDA-MB-231 control cells and PARG-KD cells were treated with JA2131, then total cell lysates were subjected to immunoblotting with anti-PAR antibody, followed by immunodetection for anti-PARG, PARP1 and Actin antibody (Fig. 6c). […] Dose-response curves comparing control and PARG-KD cells further validate the selective action of JA2131 on control cells expressing PARG, but not on the PARG-KD cells (Supplementary Fig. 12).
Cells were grown in 6-well plates and 10 cm dishes, treated with PARGi for 2 h, irradiated and recovered for 1 h before harvesting. Cells were irradiated, ranging from 1 to 10 Gy using RAD SOURCE, RS-2000, Biological System, RadSource.com. Cells were washed with phosphate buffer and saline (PBS) and lysed with buffer containing 50 mM Hepes, pH 7.5, 1% (vol/vol) igepal-C630, 1 mg/ml bacitracin, 1 mM EDTA, 10 mM NaF, 1 mM sodium orthovanadate, 10% (vol/vol) glycerol, 50 mM NaCl, 1 mM PMSF, and Protease Inhibitor Cocktail Set III (EMD Millipore). The detergent-soluble fraction was used for western blotting. Cell fractionation was carried out using the Subcellular Protein Fractionation Kit, (#78840, ThermoFisher) according to the manufacturer’s instruction. Primary antibodies were purchased from the following sources; Actin, GAPDH, γH2AX and Histone-H3 was from Cell Signaling Technology. H2AX and LAMB1 were from Invitrogen/ThermoFisher. […]

## Cn1c(=S)c2[nH]c(SCCN3CCOCC3)nc2n(C)c1=O [JA2131]
5 μM JA2131 2 h, Ci-DMSO = 1
  anti-PAR western blot band, Normalized: 6.313
5 μM JA2131 2 h, ImageJ
  anti-PAR western blot band, Intensity inversion: 0.006671
  anti-PAR western blot band, Neg. substracted: 0.001364
  anti-PAR western blot band, mean int.: 149.9
5 μM, 2 h
  PAR accumulation after treatment: a measurable increase in PAR
JA2131 2 h combined with IR, 1 h recovery
  cellular PARylation: massive increase in cellular PARylation at 100 nM
JA2131 alone, 2 h
  cellular PARylation: dose-dependent increase in cellular PARylation between 1 μM and 5 μM doses
